From publication PMC6968640, “Development of potent reversible selective inhibitors of butyrylcholinesterase as fluorescent probes” (Journal of Enzyme Inhibition and Medicinal Chemistry, 2020)
Several values for one entry are separate records, joined by “and”; a condition that tells them apart may be missing. Identical values can stand only once. Entries after “also recorded” stand apart in the source; their conditions may differ. Like-named read-outs stand apart in the source and are kept apart here.

Key:
mAChE = mAChE (Mus musculus, UniProt P21836); assay: Inhibition of mAChE, method of Ellman; type: biochemical; details: compound at 100 µM; read-out: mAChE residual activity (RA)
mAChE, sequence (P21836 32-614): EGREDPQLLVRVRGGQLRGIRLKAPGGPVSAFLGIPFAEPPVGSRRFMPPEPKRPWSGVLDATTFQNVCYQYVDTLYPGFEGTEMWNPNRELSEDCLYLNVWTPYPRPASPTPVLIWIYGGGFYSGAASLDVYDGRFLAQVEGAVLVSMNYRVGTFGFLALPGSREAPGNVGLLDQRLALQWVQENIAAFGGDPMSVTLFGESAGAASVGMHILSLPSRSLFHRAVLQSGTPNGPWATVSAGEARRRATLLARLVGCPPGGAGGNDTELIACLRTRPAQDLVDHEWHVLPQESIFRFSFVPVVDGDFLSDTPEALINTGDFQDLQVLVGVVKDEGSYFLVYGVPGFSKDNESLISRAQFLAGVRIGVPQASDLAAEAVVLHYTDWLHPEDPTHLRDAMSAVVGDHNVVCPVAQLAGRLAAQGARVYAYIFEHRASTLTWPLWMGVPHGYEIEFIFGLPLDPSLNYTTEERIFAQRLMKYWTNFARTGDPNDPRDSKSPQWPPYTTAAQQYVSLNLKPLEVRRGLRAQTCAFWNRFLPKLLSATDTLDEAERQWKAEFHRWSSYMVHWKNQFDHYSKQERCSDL
Description: (§1) The inhibitory potencies of these probes against cholinesterases (i.e. huAChE, murine AChE [mAChE] and huBChE) were determined using the method of Ellman[18], as previously described. The assays were carried out at room temperature in 100 mM phosphate buffer, pH 8.0, containing 333 µM Ellman reagent (5,5′-dithiobis(2-nitrobenzoic acid); DTNB), 500 µM substrate (huAChE/mAChE: acetylthiocholine; huBChE: butyrylthiocholine iodide [BSCh]) and huAChE/mAChE or huBChE (50 pM, 1 nM, respectively). […] Formation of the yellow product was followed for 1 min as the change in the absorbance at 412 nm, using a microplate reader (Synerg H4; BioTek Instruments, Inc., USA). For screening for inhibitory activities, the compounds were assayed at 100 µM, in triplicate. The initial velocities in the absence (v0) and presence (vi) of the test compounds were calculated. […].
(§2) For the IC50 measurements, serial dilutions were prepared for the compounds with RAs <50% at 100 µM. The IC50 values were calculated by plotting the RAs against the compound concentration according to a four-parameter logistic function, using the GraphPad Prism 8 software (GraphPad Software, USA). All of the measurements were repeated twice, each of which was in triplicate.

huAChE = huAChE (Homo sapiens, UniProt P22303); assay: Inhibition of huAChE, method of Ellman; type: biochemical; details: compound at 100 µM; read-out: huAChE residual activity (RA)
huAChE, sequence (P22303 32-614): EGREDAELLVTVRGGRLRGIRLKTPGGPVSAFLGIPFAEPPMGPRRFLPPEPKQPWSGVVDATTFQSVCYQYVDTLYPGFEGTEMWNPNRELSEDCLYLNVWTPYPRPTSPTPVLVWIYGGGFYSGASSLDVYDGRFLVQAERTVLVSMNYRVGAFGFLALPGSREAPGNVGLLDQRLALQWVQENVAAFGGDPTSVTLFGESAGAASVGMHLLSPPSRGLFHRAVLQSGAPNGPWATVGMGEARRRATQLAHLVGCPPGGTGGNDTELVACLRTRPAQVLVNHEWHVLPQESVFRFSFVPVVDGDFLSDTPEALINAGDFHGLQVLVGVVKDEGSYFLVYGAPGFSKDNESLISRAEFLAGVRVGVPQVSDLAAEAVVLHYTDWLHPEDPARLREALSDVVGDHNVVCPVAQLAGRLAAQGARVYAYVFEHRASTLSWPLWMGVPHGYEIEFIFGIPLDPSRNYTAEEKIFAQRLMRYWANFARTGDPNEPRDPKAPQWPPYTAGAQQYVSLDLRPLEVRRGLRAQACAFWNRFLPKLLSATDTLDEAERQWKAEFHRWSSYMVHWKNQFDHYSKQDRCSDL
Description: as §1, §2

hBChE [1] = target: T1, hBChE (Homo sapiens, UniProt P06276); assay: Inhibition of huBChE, method of Ellman; type: biochemical; details: for remaining activity at 100 µM: compound at 100 µM, read-out: huBChE residual activity (RA); for IC50: 500 µM butyrylthiocholine iodide, 1 nM enzyme, pH 8.0, room temperature
T1 sequence (P06276 29-602): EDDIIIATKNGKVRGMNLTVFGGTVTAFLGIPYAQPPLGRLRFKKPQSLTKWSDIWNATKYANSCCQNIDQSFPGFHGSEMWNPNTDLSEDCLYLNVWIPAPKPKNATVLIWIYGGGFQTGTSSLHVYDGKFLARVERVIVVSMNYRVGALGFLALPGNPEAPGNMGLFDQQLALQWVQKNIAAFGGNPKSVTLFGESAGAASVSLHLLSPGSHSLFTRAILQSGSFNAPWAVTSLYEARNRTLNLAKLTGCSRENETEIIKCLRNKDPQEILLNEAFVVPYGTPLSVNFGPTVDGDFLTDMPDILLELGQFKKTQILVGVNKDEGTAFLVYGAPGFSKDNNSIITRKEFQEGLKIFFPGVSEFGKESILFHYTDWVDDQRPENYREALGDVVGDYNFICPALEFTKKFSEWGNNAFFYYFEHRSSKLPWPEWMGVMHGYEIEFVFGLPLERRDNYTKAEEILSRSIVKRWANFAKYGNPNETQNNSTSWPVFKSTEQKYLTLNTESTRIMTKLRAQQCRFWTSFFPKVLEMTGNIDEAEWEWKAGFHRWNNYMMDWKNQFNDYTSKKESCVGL
Description: as §1, §2

purified huBChE = target: T2, purified huBChE (Homo sapiens, UniProt P06276); assay: Kinetic studies: progress curves of BSCh hydrolysis by purified huBChE; type: biochemical; details: 25 °C, 25 mM phosphate buffer pH 7.0, about 50 µM BSCh
T2 construct: gift from Drs; O. Lockridge and L. Schopfer
T2 sequence (P06276 29-602): as above
Description: Purified huBChE was a generous gift from Drs. O. Lockridge and L. Schopfer. DTNB and BSCh were from Sigma. All other reagents used were of analytical grade. The experiments were carried out at 25 °C in 25 mM phosphate buffer, pH 7.0.
Three compounds (2C, 3A, 3B) were tested by measuring the progress curves for BSCh hydrolysis by huBChE in the absence and presence of each of these compounds at five to seven concentrations. Assays were carried out over 10 min, in a 0.6-ml cuvette, using the method of Ellman et al[18]. The compound concentrations used were: 2C, 0–1 µM; 3A, 0–200 µM; and 3B, 0–50 nM.
The concentration of purified huBChE, which was always the final addition to these assays, was ∼0.5 nM. The hydrolysis of 50 µM BSCh was followed until completion (in most cases), in the presence of 1 mM DTNB. Reaching the plateau was important to get a precise estimate of the actual added BSCh concentration. For the calculation, the molar absorption coefficient of […] was used. All of the measurements were performed using a conventional UV/Vis spectrophotometer (Lambda45; Perkin-Elmer). Due to the experimental manipulation, a dead time of 10 s was added to each measurement, and all progress curves were extrapolated accordingly prior to the analysis.
. This programme is designed to generate differential equations from drawn reaction schemes and subsequently to fit the coefficients of these equations according to least squares methodology to reproduce the experimental data using a numerical integration algorithm. For determination of the kinetics mechanisms and parameters, the van Slyke-Cullen single intermediate reaction scheme[23] for substrate hydrolysis by huBChE was combined with a reversible mixed inhibition mechanism (Figure 1). […]
Figure 1. Reaction scheme for the inhibition of BSCh hydrolysis by purified huBChE in the presence of DTNB by compounds 2C, 3A, and 3B. E, free enzyme; EA, acylated intermediate; S, substrate BSCh; P, all of the stoichiometrically released products (SCh-TNB, TNB^–); and I, compounds (inhibitors) 2C, 3A, and 3B. The symbols for the constants are: kcat (k1), catalytic constant for BSCh turnover; Km (k0), Michaelis constant; Kp = k3/k2, inhibition constant for binding of the product thiocholine-TNB; K1 = k5/k4 and K2 = k7/k6, dissociation constants for binding of the compounds to the free and acylated enzyme, respectively.

hBChE [2] = target: T1, hBChE; assay: Fluorescence titration of hBChE with probe 2C; details: in duplicate, fitted to sum of hyperbolic and linear equation; read-out: binding constant from fluorescence titration
Description: 4. Titration of hBChE with probe 2C
Figure S2. The fluorescence titration data, in duplicate, were simultaneously fitted to the sum of hyperbolic and linear equation. The determined binding constant for probe 2C was 5.5 +/- 1.6 nM, remarkably similar to the inhibition constant for the binding to the free enzyme (3.3 nM, see Table 1 in […]
(1 picture or pasted object on this page, not shown here)

BChE in rat brain slices = target: T3, BChE in rat brain slices (Rattus norvegicus, UniProt Q9JKC1); details: rat brain cryosections, AChE blocked with 0.1 mM BW-284C51
T3 construct: coronal cryosections (10 μm) of a rat brain; from tissue; host or cells: rat brain coronal cryosections at the level of the thalamus
T3 sequence (Q9JKC1 24-597): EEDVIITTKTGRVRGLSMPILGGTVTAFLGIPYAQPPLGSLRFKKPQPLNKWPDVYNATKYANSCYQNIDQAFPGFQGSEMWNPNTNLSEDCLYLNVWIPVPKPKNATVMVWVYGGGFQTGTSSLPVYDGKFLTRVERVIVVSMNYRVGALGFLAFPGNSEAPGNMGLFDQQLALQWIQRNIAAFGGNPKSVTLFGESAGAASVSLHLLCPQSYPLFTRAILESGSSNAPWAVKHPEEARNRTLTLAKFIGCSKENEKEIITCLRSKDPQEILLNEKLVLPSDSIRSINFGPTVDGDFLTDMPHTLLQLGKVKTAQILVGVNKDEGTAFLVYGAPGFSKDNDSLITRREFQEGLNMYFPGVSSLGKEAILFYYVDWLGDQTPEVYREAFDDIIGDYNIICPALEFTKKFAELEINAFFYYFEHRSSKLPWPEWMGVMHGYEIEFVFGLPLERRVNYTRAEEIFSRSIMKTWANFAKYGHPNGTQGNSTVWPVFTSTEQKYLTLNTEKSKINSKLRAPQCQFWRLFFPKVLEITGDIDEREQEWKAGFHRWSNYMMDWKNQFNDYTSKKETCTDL
Description: Sections of rat brain with the highest BChE activity were selected and the modified Koelle − Karnovsky histochemical method was used to detect BChE activity[16]^,[40–42].
Histochemical staining for BChE activity of coronal cryosections (10 μm) of a rat brain from two regions (top/bottom row) at the level of the thalamus. All sections were processed with 0.1 mM BW-284C51 in Koelle solution, to completely block AChE activity. […] The relative optical density (ROD) pseudocolor scale for staining intensity of BChE activity is on the right.
BChE activity histochemical staining of coronal cryosections (10 μm) of a rat brain from
two regions at the level of the thalamus. All sections were processed with 0.1 mM BW-284C51 in
Koelle solution to completely block the AChE activity (A, B). For the inhibition experiment, the
relative optical density (ROD) pseudocolor scale for the staining intensity of BChE activity is shown
on the right. The photomicrographs show BChE -rich neurons in the laterodorsal thalamic nucleus

[3] = Solubility in aqueous buffers; type: physicochemical
hBChE [4] = target: T1, hBChE; assay: Fluorescence emission of probes on binding to huBChE; details: probe 1 μM, huBChE 500 nM, buffer
From the text: The fluorescence properties of probes 2C and 3B were then examined when they were bound to huBChE. […] This mirrored the differences in the emission of probe 2C between the buffer solution and the organic solvents (Figure 6(B)). […]. Most probably this is due to unspecific binding to protein surface and titration study (see Supplemental material) confirms this. Future development of probe 2C should thus be orientated towards lowering the lipophilicity, which should, in turn, reduce unspecific binding.
Figure 7. […]

[5] = read-out: K1, dissociation constant for binding to the free enzyme
[6] = read-out: K2, dissociation constant for binding to the acylated enzyme

SMILES	remaining activity at 100 µM (mAChE) [%]	remaining activity at 100 µM (huAChE) [%]	huBChE inhibition (in words) (hBChE [1])	remaining activity at 100 µM (hBChE [1]) [%]	IC50 (hBChE [1]) [nM]	Ki (purified huBChE; [5])	Ki (purified huBChE; [6]) [nM]	Kd (hBChE [2]) [nM]	concentration needed to achieve substantial inhibition of BChE (BChE in rat brain slices) [mM]	solubility in aqueous buffers (in words) [3]	enhancement of fluorescence intensity on addition of huBChE (hBChE [4])
CCN(CC)c1ccc2cc(C(=O)N(CCOC)CC3CCCN(Cc4ccccc4)C3)c(=O)oc2c1 (stereo not drawn) [1A]	92	89	–	–	–	–	–	–	–	–	–
CN(C)CCNC(=O)c1cc2ccc(N(C)C)cc2oc1=O [2A]	–	18	very low and unselective inhibition of BChE	57	–	–	–	–	–	–	–
CN(C)c1ccc2cc(C(=O)NCC[N+](C)(C)C)c(=O)oc2c1 [2B]	–	25	very low and unselective inhibition of BChE	54	–	–	–	–	–	–	–
CCN(CC)c1ccc2cc(-c3nc(CN4CCCC(CN(CCN(C)C)C(=O)c5ccc6ccccc6c5)C4)cs3)c(=O)oc2c1 (stereo not drawn) [2C]	70	> 74	–	–	88	3.3 nM and 3.27 nM	42.7 ± 1.5	5.5 ± 1.6	1	sufficient aqueous solubility	approximately two-fold
CCN(CC)c1ccc2cc(C(=O)NCCOCCOCCN(CC3CCCN(Cc4ccccc4)C3)S(=O)(=O)c3ccc4ccccc4c3)c(=O)oc2c1 (stereo not drawn) [3A]	93	94	–	–	60	63 ± 0.5 nM	296 ± 2	–	–	poor solubility in aqueous buffers; also recorded: low solubility	–
O=[N+]([O-])c1ccc(N2CCN(CCN(CC3CCCN(Cc4ccccc4)C3)S(=O)(=O)c3ccc4ccccc4c3)CC2)c2nonc12 (stereo not drawn) [3B]	97	57	–	–	18	4.63 ± 0.02 nM	96.6 ± 2	–	1	improved solubility in aqueous solutions compared to 3A; also recorded: sufficient aqueous solubility	only marginally increased
[N-]=[N+]=NCCOCCN(CC1CCCN(Cc2ccccc2)C1)S(=O)(=O)c1ccc2ccccc2c1 (stereo not drawn) [3C]	94	84	retained good inhibitory activity	–	19	–	–	–	–	–	–
O=[N+]([O-])c1ccc(N2CCN(Cc3cn(CCOCCN(CC4CCCN(Cc5ccccc5)C4)S(=O)(=O)c4ccc5ccccc5c4)nn3)CC2)c2nonc12 (stereo not drawn) [3D]	100	98	substantial loss of inhibitory activity	–	214	–	–	–	–	–	–
